Values of other authors as cited in patent publication US8329663B2, “Compositions and methods for the treatment of chronic infections” (priority 2008, dated 2012).
Read-outs that look alike come from different tables or passages of the source.

Assays:
[1] = in water
[2] = tested on: C. pneumoniae
[3] = first (or only) pKa value listed
[4] = second pKa value listed (polyprotic)
[5] = third pKa value listed (polyprotic)

Row | Compound | pKa (in H2O) [1, 3] | pKa (in H2O) [1, 4] | pKa (in H2O) [1, 5] | in vitro susceptibility of C. pneumoniae [2]
1 | Cc1ccccc1-n1c(C)nc2ccccc2c1=O [Methaqualone] | 2.5 | – | – | –
2 | CC(C)[C@H](N)C(=O)OCCOCn1cnc2c(=O)[nH]c(N)nc21 [Valacyclovir] | 1.90 | 7.47 | 9.43 | –
3 | C[N+](C)(C)C[C@H](O)CC(=O)[O-] [L-carnitine] | 3.8 | – | – | –
4 | NNC(=O)c1ccncc1 [Isoniazid] | 1.82 | – | – | –
5 | CC[C@H]1OC(=O)[C@H](C)[C@@H](O[C@H]2C[C@@](C)(OC)[C@@H](O)[C@H](C)O2)[C@H](C)[C@@H](O[C@@H]2O[C@H](C)C[C@H](N(C)C)[C@H]2O)[C@](C)(OC)C[C@@H](C)C(=O)[C@H](C)[C@@H](O)[C@]1(C)O [clarithromycin] | – | – | – | susceptible in vitro
6 | CN(C)CCc1c[nH]c2ccccc12 [Dimethyltryptamine] | 2 | – | – | –
7 | CCCN(CCC)S(=O)(=O)c1ccc(C(=O)O)cc1 [Probenicid] | 3.4 | – | – | –
8 | CCS(=O)(=O)CCn1c([N+](=O)[O-])cnc1C [Tinidazole] | 2.34 | – | – | –
9 | CCOC(=O)c1ncn2c1CN(C)C(=O)c1cc(F)ccc1-2 [Flumazenil] | 1.7 | – | – | –
10 | COc1ccc2[nH]c([S+]([O-])Cc3ncc(C)c(OC)c3C)nc2c1 (stereo not shown) [Omeprazole] | – | 8.8 | – | –
11 | CC1(C)S[C@@H]2[C@H](NC(=O)[C@H](N)c3ccc(O)cc3)C(=O)N2[C@H]1C(=O)O [Amoxicillin] | 2.8 | 7.2 | – | –
12 | CC(C)CN(C[C@@H](O)[C@H](Cc1ccccc1)NC(=O)O[C@H]1CCOC1)S(=O)(=O)c1ccc(N)cc1 [Amprenavir] | 1.76 | 11.54 | – | –
13 | OCCOCCN1CCN(C(c2ccccc2)c2ccc(Cl)cc2)CC1 (stereo not shown) [Hydroxyzine] | 1.8 | – | – | –
14 | CC(=O)OCC1=C(C(=O)O)N2C(=O)[C@@H](NC(=O)CSc3ccncc3)[C@H]2SC1 [Cephapirin] | 2.15 | 5.44 | – | –
15 | CO[C@H]1/C=C/O[C@@]2(C)Oc3c(C)c(O)c4c(O)c(c(/C=N/N5CCN(C)CC5)c(O)c4c3C2=O)NC(=O)/C(C)=C\C=C\[C@H](C)[C@H](O)[C@@H](C)[C@@H](O)[C@@H](C)[C@H](OC(C)=O)[C@@H]1C [Rifampin] | 1.7 | 7.9 | – | –
16 | O=C(O)c1cccc(C(=O)O)n1 [Dipicolinic Acid] | – | 4.97 | – | –
17 | NCC1(CC(=O)O)CCCCC1 [Neurontin] | 3.68 | 10.70 | – | –
18 | C[C@@H]1CN(c2c(F)c(N)c3c(=O)c(C(=O)O)cn(C4CC4)c3c2F)C[C@H](C)N1 [sparfloxacin] | – | – | – | susceptible in vitro
19 | Cc1nc2n(c(=O)c1CCN1CCC(c3noc4cc(F)ccc34)CC1)CCCC2O (stereo not shown) [9-Hydroxy-risperidone] | 2.77 | 7.86 | – | –
20 | O=C(O)c1ccccc1Nc1cccc(C(F)(F)F)c1 [Flufenamic acid] | 3.9 | – | – | –
21 | C[C@H](N)C(=O)N[C@@H](C)C(=O)N[C@H]1[C@@H]2CN(c3nc4c(cc3F)c(=O)c(C(=O)O)cn4-c3ccc(F)cc3F)C[C@@H]21 [Alatrofloxacin] | 0.64 | 8.12 | – | –
22 | CN(C)CCc1c[nH]c2cccc(OP(=O)(O)O)c12 [Psilocybin] | 0.2 | – | – | –
23 | CC[C@H]1OC(=O)[C@H](C)[C@@H](O[C@H]2C[C@@](C)(OC)[C@@H](O)[C@H](C)O2)[C@H](C)[C@@H](O[C@@H]2O[C@H](C)C[C@H](N(C)C)[C@H]2O)[C@](C)(O)C[C@@H](C)C(=O)[C@H](C)[C@@H](O)[C@]1(C)O [erythromycin] | – | – | – | susceptible in vitro
24 | O=P(O)(O)C(O)(Cc1cccnc1)P(=O)(O)O [Risedronic acid] | 0.32 | 5.09 | – | –
25 | C[C@H]1c2cccc(O)c2C(=O)C2=C(O)[C@]3(O)C(=O)C(C(N)=O)=C(O)[C@@H](N(C)C)[C@@H]3[C@@H](O)[C@@H]21 [Doxycycline] | 3.5 | 7.7 | 9.5 | –
